Source: patent US11571484B2, “Compositions that target tumor-associated macrophages and methods of use therefor” (Sanford Burnham Prebys Medical Discovery Institute, priority 2017, dated 2023)
Values joined by “and” are separate entries in the source; they are usually repeats but may differ in a detail not shown here. Equal values may be shown once. Ends that are not written are not given here. FAM = 5(6)-carboxyfluorescein; Ahx = NCCCCCC(=O)O

Columns and labels:
sentinel lymph node = assay: Ex vivo organ imaging after i.p. injection in 4T1 tumor-bearing mice; parameters: species or system mouse; conditions: 30 nmoles i.p., 2 h, signal normalized to tissue weight, ratio tissue/kidney
Procedure: A, FAM-UNO and FAM-LyP-1 were injected i.p. at doses of 30 nmoles in 4T1 tumor-bearing mice. Peptides were allowed to circulate for two h, mice were then sacrificed, and the organs were collected and imaged with the live imaging system MX3 Art Optix in the FITC channel with laser excitation. B, The signal in each organ was quantified, normalized to the tissue weight and the ratio tissue/kidney was graphed in bar graph. LyP-1 is a peptide that targets p32 protein on the surface of activated macrophages. Results from n=3 mice. Bars of panel B represent mean+SEM.

MEMs in MCF-7 tumors = assay: Free peptide homing and immunofluorescence in the orthotopic MCF-7 breast tumor model; assay type: in vivo, mouse; conditions: 30 nmoles i.v., 2 h
Procedure: A, Thirty nmoles of FAM-UNO were injected intravenously in mice bearing MCF-7 tumors, 21 days after orthotopic inoculation of 5×10^6 cells. […] All images were taken with the same imaging conditions. Scale bar: 100 μm and 50 μm (blow up). […] The tumor tissue from panel A was analyzed by immunofluorescence using rabbit anti-FAM (green), rat anti-HLA ABC (red) and counterstained with DAPI (blue). Scale bar: 50 μm. C, MCF-7 tumors are leaky. Tumor sections were immunostained for endogenous mouse IgG and counterstained with DAPI using the same staining and imaging conditions as in FIG. 17. Scale bar: 100 μm. Representative images from n=3 mice.
Mice were used for homing studies two weeks later.

[1] = test system: peritoneal cells (CCR2+ macrophages) of 4T1 tumor-bearing mice; assay: Flow cytometry of FAM-peptide binding to peritoneal cells from 4T1 tumor mice; assay type: cell-based, mouse
Procedure: A, Change in fluorescence anisotropy of FAM-UNO (dotted line) and FAM-UNO in DTT (solid line) while incubating with mouse recombinant CD206. B, Change in fluorescence anisotropy of FAM-CSPGAK with mouse recombinant CD206 (solid line) or with CD163 (dotted line) and of FAM-CPMTDNE (control) with CD206 (dashed line). C, FAM-UNO binds selectively to CCR2^+ macrophages collected from the peritoneal cavity of 4T1 tumor-bearing mice, as 94.3% of FAM^+ cells are CCR2^+ cells. The analysis was done gating for the FAM^+ population (left panel). In these 4T1 tumor bearing mice, 58% of peritoneal cells are macrophages, i.e. CCR2^+ cells (right panel). D, FAM-UNO binding to peritoneal cells is inhibited by preincubating with 10 µg/mL of anti-CD206, whereas the preincubation with anti CD206 antibody had no effect on FAM-LyP-1 binding. In panels A and D are shown representative graphs from three independent experiments. In panels c and d are shown results from three independent experiments (n=3 mice) and bars of panel D represents mean+SEM.
Peritoneal cells were extracted from Balb/c mice 2 weeks after inoculation of 10^6 cells orthotopically). Mice were anesthetized and intraperitoneally injected with 5 mL of PBS+1% BSA, the abdomen was massaged to detach macrophages and the peritoneal fluid was collected. This procedure typically yielded 5-9×10^6 cells. Cells were concentrated to 1 mL in the same peritoneal fluid. For FAM-peptide incubation, the peptides were incubated for 30 minutes at 4° C. For antibody incubation the cells were incubated with antibody for 1 h at 4° C. A647 Rat anti-CCR2 (Biolegend, CA, USA. Catalog number 150603) was incubated for 1 h at 4° C. at a dilution of 1/200. FAM-peptides were incubated at a concentration of 0.5 μg/mL, and Rat anti-CD206 (Bio-Rad, CA, USA. Product code MCA2235GA) was incubated at a concentration of 10 μg/mL. Binding of FAM-peptides was monitored with 488 nm channel and CCR2 labeling was assessed in the 647 nm channel using A647 Anti-CCR2 (Biolegend, CA, USA). After incubation of FAM-Peptides or antibodies, the cells were washed 3 times at 4° C. with PBS-Tby centrifugation at 250 g for 6 minutes, followed by flow cytometry analysis (Accuri, BD Biosciences, CA, USA).

FAM-UNO: FAM-labeled UNO peptide CSPGAKVRC (SEQ ID NO: 1); 5(6)-carboxyfluorescein with 6-aminohexanoic acid spacer at the N-terminus ({FAM-Ahx}-CSPGAKVRC; cysteine pairing not given here)
accumulation of FAM in the sentinel lymph node versus FAM-LyP-1 (sentinel lymph node): significantly higher accumulation of the FAM in the sentinel lymph node
accumulation in MEMs (MEMs in MCF-7 tumors): selectively accumulated in MEMs
targeting of tumor cells of human origin (HLA ABC+) (MEMs in MCF-7 tumors): did not target the tumor cells of human origin
cells gated for CCR2+ that were positive for FAM-UNO binding ([1]; 0.5 μg/mL peptide, 30 min, 4 °C): 94%
reduction of binding to peritoneal cells by pre-incubation with anti-CD206 antibody ([1]; anti-CD206 10 μg/mL): 25%
FAM+ cells that are CCR2+ cells (macrophages) ([1]; gated for the FAM+ population, 0.5 μg/mL peptide, 30 min, 4 °C): 94.3% and 95%
